Test results as given in patent publication US12522594B2, “2-heteroaryl-3-oxo-2,3-dihydropyridazine-4-carboxamides for the treatment of cancer” (Deutsches Krebsforschungszentrum, priority 2017, dated 2026).

What was measured:
AHR [1] = target: T1, AHR (Homo sapiens, UniProt P35869); assay: In vitro assay 1: antagonism in human cell line (transactivation assay, U87 cells prestimulated with kynurenic acid, DRE firefly luciferase reporter); type: cell-based; set-up: host or cells: U87 glioblastoma cells, stably transfected with DRE firefly luciferase and renilla reporter constructs; details: 150 uM kynurenic acid, 20 hours, read-out: Assay 1: AHR-luc Hum Antagonism IC50
T1 sequence (P35869 11-848): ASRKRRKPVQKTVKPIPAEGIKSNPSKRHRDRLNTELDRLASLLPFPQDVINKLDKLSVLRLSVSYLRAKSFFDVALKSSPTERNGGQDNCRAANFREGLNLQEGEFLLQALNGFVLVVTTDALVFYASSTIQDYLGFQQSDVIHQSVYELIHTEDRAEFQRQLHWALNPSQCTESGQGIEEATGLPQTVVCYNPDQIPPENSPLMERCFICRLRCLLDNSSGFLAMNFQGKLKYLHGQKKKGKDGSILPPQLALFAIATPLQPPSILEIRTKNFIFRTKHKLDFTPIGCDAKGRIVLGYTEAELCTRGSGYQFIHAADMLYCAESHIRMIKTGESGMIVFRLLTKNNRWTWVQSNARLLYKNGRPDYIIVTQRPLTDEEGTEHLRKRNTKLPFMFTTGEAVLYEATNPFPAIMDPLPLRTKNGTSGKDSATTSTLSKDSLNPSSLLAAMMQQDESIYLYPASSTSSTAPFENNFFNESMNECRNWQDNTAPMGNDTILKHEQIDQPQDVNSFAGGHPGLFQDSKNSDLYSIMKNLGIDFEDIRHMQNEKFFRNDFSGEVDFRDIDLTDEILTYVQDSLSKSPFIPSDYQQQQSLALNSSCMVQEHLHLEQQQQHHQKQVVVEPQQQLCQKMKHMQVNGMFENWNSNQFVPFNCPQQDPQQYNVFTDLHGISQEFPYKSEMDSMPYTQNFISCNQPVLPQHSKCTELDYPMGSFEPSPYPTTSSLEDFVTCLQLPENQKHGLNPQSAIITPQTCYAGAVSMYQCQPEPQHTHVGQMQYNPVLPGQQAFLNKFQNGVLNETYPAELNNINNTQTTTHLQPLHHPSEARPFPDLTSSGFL
Experimental: (§1) Transactivation Assay in Human Cell Line (In Vitro Assays 1 and 2)
(§2) Transactivation assays were carried out in U87 glioblastoma cells (ATCC) endogenously expressing AHR. In addition the cells were stably transfected with an AHR inducible firefly luciferase reporter gene construct that carried AHR-binding sites (DRE) in its promoter and a renilla reporter gene construct with constitutively active promoter. Kynurenic acid is an endogenous AHR activating ligand and was used to prestimulate test cells prior to testing the antagonistic properties of compounds.
In Vitro Assay 1: Antagonism in Human Cell Line
Normalization was done by positive and negative controls.

AHR [2] = target: T1, AHR; assay: In vitro assay 2: agonism in human cell line (transactivation assay, U87 cells, DRE firefly luciferase reporter); type: cell-based; set-up: host or cells: U87 glioblastoma cells, stably transfected with DRE firefly luciferase and renilla reporter constructs; details: no kynurenic acid, 20 hours, read-out: Assay 2: AHR-luc Hum Agonism IC50
Experimental: as §1, §2
In Vitro Assay 2: Agonism in Human Cell Line
As positive activation control cells were incubated with 300 uM kynurenic acid. Normalization was done by positive and negative controls.

SMILES | IC50 (AHR [1]) | IC50 (AHR [2])
Cn1cc(-n2nc(-c3ccc(OC(F)F)cc3)cc(C(=O)NC(C(C)(C)O)C(F)(F)F)c2=O)cn1 (single isomer, unassigned) [Example 307, 6-[4-(Difluoromethoxy)phenyl]-2-(1-methyl-1H-pyrazol-4-yl)-3-oxo-N-(1,1,1-trifluoro-3-hydroxy-3-methylbutan-2-yl)-2,3-dihydropyridazine-4-carboxamide] | 73.9 nM | > 20000 nM
Cn1cc(-n2nc(-c3ccc(C(F)F)cc3)cc(C(=O)N[C@@H]3COC[C@@H]3O)c2=O)cn1 (single isomer, unassigned) [Example 320, 6-[4-(Difluoromethyl)phenyl]-N-[(cis)-4-hydroxytetrahydrofuran-3-yl]-2-(1-methyl-1H-pyrazol-4-yl)-3-oxo-2,3-dihydropyridazine-4-carboxamide] | 44.1 nM | > 20000 nM
C[C@]1(O)CCC[C@H]1NC(=O)c1cc(-c2ccc(OC(F)(F)F)cc2)nn(-c2cccnc2)c1=O (single isomer, unassigned) [Example 330, N-[(cis)-2-hydroxy-2-methylcyclopentyl]-3-oxo-2-(pyridin-3-yl)-6-[4-(trifluoromethoxy)phenyl]-2,3-dihydropyridazine-4-carboxamide] | 92.7 nM | > 20000 nM
Cn1cc(-n2nc(-c3ccc(Cl)cc3)cc(C(=O)N[C@@H]3CCC[C@]3(C)O)c2=O)cn1 (single isomer, unassigned) [Example 336, 6-(4-Chlorophenyl)-N-[(cis)-2-hydroxy-2-methylcyclopentyl]-2-(1-methyl-1H-pyrazol-4-yl)-3-oxo-2,3-dihydropyridazine-4-carboxamide] | 42.9 nM | > 20000 nM
COCC(O)CNC(=O)c1cc(-c2ccc(Cl)cc2)nn(-c2cnn(C)c2)c1=O (single isomer, unassigned; (+)) [Example 26, (+)-6-(4-Chlorophenyl)-N-(2-hydroxy-3-methoxypropyl)-2-(1-methyl-1H-pyrazol-4-yl)-3-oxo-2,3-dihydropyridazine-4-carboxamide] | 87.5 nM | > 20000 nM
O=C(NC(CO)C1CC1)c1cc(-c2ccc(Cl)cc2)nn(-c2cccnc2)c1=O (single isomer, unassigned; (+)) [Example 91, (+)-6-(4-Chlorophenyl)-N-(1-cyclopropyl-2-hydroxyethyl)-3-oxo-2-(pyridin-3-yl)-2,3-dihydropyridazine-4-carboxamide] | 48.1 nM | > 20000 nM
Cn1cc(-n2nc(-c3ccc(OC(F)(F)F)cc3)cc(C(=O)N[C@@H]3COC[C@H]3O)c2=O)cn1 (single isomer, unassigned; enantiomer 1) [Example 64, N-[(trans)-4-Hydroxytetrahydrofuran-3-yl]-2-(1-methyl-1H-pyrazol-4-yl)-3-oxo-6-[4-(trifluoromethoxy)phenyl]-2,3-dihydropyridazine-4-carboxamide, Enantiomer 1] | 81.6 nM | > 20000 nM
CC(C)(O)C(NC(=O)c1cc(-c2ccc(OC(F)(F)F)cc2)nn(-c2cccnc2)c1=O)C(F)(F)F (single isomer, unassigned; enantiomer 1) [Example 136, 3-Oxo-2-(pyridin-3-yl)-N-[1,1,1-trifluoro-3-hydroxy-3-methylbutan-2-yl]-6-[4-(trifluoromethoxy)phenyl]-2,3-dihydropyridazine-4-carboxamide, Enantiomer 1] | 60.4 nM | > 20000 nM

Compounds with a lower IC50 (AHR [1]), results first:

IC50 (AHR [1]) | IC50 (AHR [2]) | SMILES
1.49 nM | > 20000 nM | CC(NC(=O)c1cc(-c2ccc(Cl)cc2)nn(-c2cccnc2)c1=O)C(O)C(F)(F)F (single isomer, unassigned) [Example 297, 6-(4-Chlorophenyl)-3-oxo-2-(pyridin-3-yl)-N-(4,4,4-trifluoro-3-hydroxybutan-2-yl)-2,3-dihydropyridazine-4-carboxamide]
3.69 nM | > 20000 nM | CC(NC(=O)c1cc(-c2ccc(Cl)cc2)nn(-c2cccnc2)c1=O)C(O)C(F)(F)F (single isomer, unassigned) [Example 298, 6-(4-Chlorophenyl)-3-oxo-2-(pyridin-3-yl)-N-(4,4,4-trifluoro-3-hydroxybutan-2-yl)-2,3-dihydropyridazine-4-carboxamide]
13.3 nM | > 20000 nM | CC(NC(=O)c1cc(-c2ccc(Cl)cc2)nn(-c2cccnc2)c1=O)C(O)C(F)(F)F (single isomer, unassigned) [Example 299, 6-(4-Chlorophenyl)-3-oxo-2-(pyridin-3-yl)-N-(4,4,4-trifluoro-3-hydroxybutan-2-yl)-2,3-dihydropyridazine-4-carboxamide]
1.33 nM | > 20000 nM | Cn1cc(-n2nc(-c3ccc(OC(F)F)cc3)cc(C(=O)NC(C(C)(C)O)C(F)(F)F)c2=O)cn1 (single isomer, unassigned) [Example 306, 6-[4-(Difluoromethoxy)phenyl]-2-(1-methyl-1H-pyrazol-4-yl)-3-oxo-N-(1,1,1-trifluoro-3-hydroxy-3-methylbutan-2-yl)-2,3-dihydropyridazine-4-carboxamide]
32 nM | > 20000 nM | O=C(N[C@@H]1COC[C@@H]1O)c1cc(-c2ccc(C(F)F)cc2)nn(-c2cccnc2)c1=O (single isomer, unassigned) [Example 318, 6-[4-(Difluoromethyl)phenyl]-N-[(cis)-4-hydroxy-tetrahydrofuran-3-yl]-3-oxo-2-(pyridin-3-yl)-2,3-dihydropyridazine-4-carboxamide]
29.4 nM | > 20000 nM | C[C@]1(O)CCC[C@H]1NC(=O)c1cc(-c2ccc(OC(F)(F)F)cc2)nn(-c2cccnc2)c1=O (single isomer, unassigned) [Example 329, N-[(cis)-2-hydroxy-2-methylcyclopentyl]-3-oxo-2-(pyridin-3-yl)-6-[4-(trifluoromethoxy)phenyl]-2,3-dihydropyridazine-4-carboxamide]
11.3 nM | > 20000 nM | Cn1cc(-n2nc(-c3ccc(Cl)cc3)cc(C(=O)N[C@@H]3CCC[C@]3(C)O)c2=O)cn1 (single isomer, unassigned) [Example 335, 6-(4-Chlorophenyl)-N-[(cis)-2-hydroxy-2-methylcyclopentyl]-2-(1-methyl-1H-pyrazol-4-yl)-3-oxo-2,3-dihydropyridazine-4-carboxamide]
0.502 nM | > 20000 nM | CC(C)(O)C(NC(=O)c1cc(-c2ccc(C(F)(F)F)cc2)nn(-c2cccnc2)c1=O)C(F)(F)F (single isomer, unassigned; (+)) [Example 197, (+)-3-Oxo-2-(pyridin-3-yl)-N-(1,1,1-trifluoro-3-hydroxy-3-methylbutan-2-yl)-6-[4-(trifluoromethyl)phenyl]-2,3-dihydropyridazine-4-carboxamide]
13.9 nM | > 20000 nM | O=C(NCC(O)C(F)F)c1cc(-c2ccc(C(F)(F)F)cc2)nn(-c2cccnc2)c1=O (single isomer, unassigned; (+)) [Example 247, (+)-N-(3,3-Difluoro-2-hydroxypropyl)-3-oxo-2-(pyridin-3-yl)-6-[4-(trifluoromethyl)phenyl]-2,3-dihydropyridazine-4-carboxamide]
25.6 nM | > 20000 nM | Cn1cc(-n2nc(-c3ccc(OC(F)(F)F)cc3)cc(C(=O)N[C@@H]3COC[C@@H]3O)c2=O)cn1 (single isomer, unassigned; enantiomer 1) [Example 56, N-[(cis)-4-Hydroxytetrahydrofuran-3-yl]-2-(1-methyl-1H-pyrazol-4-yl)-3-oxo-6-[4-(trifluoromethoxy)phenyl]-2,3-dihydropyridazine-4-carboxamide, Enantiomer 1]
26.5 nM | > 20000 nM | CC(C)(O)C(NC(=O)c1cc(-c2ccc(Cl)cc2)nn(-c2cccnc2)c1=O)C(F)(F)F (single isomer, unassigned; enantiomer 1) [Example 122, 6-(4-Chlorophenyl)-3-oxo-2-(pyridin-3-yl)-N-(1,1,1-trifluoro-3-hydroxy-3-methylbutan-2-yl)-2,3-dihydropyridazine-4-carboxamide, Enantiomer 1]
